Measurements: paper PMC6104039 (Nature Communications, 2018)
Values joined by “and” are separate entries in the source; they are usually repeats but may differ in a detail not shown here. Equal values may be shown once.

Tested on: gastrocnemius muscle
Assay: Targeted analysis of ceramide, SM and HexCer in gastrocnemius muscle
Type: in vivo, mice
Design: HexCer 18:1/22:0 content of gastrocnemius muscle / SM 34:1 content of gastrocnemius muscle / SM 34:2 content of gastrocnemius muscle / SM 36:2 content of gastrocnemius muscle / SM 36:1 content of gastrocnemius muscle / SM 40:1 content of gastrocnemius muscle / SM 42:2 content of gastrocnemius muscle / SM 42:1 content of gastrocnemius muscle / Cer 18:1/16:0 content of gastrocnemius muscle / Cer 18:1/18:0 content of gastrocnemius muscle / Cer 18:2/18:0 content of gastrocnemius muscle / Cer 18:0/18:0 content of gastrocnemius muscle / Cer 18:1/22:0 content of gastrocnemius muscle / Cer 18:1/24:1 content of gastrocnemius muscle / Cer 18:0/24:1 content of gastrocnemius muscle / Cer 18:1/24:0 content of gastrocnemius muscle / HexCer 18:1/16:0 content of gastrocnemius muscle / HexCer 18:1/18:0 content of gastrocnemius muscle / HexCer 18:1/20:0 content of gastrocnemius muscle: unit not given beside the values

C[C@@](N)(CO)CCc1ccc(OCc2ccc(Cl)c(Cl)c2)cc1 [P053, (S)-2-amino-4-(4-(3,4-dichlorobenzyloxy)phenyl)-2-methylbutan-1-ol]
C18 ceramide, C18 dihydroceramide and 18:2/18:0 ceramide in gastrocnemius muscle (5 mg/kg daily): significant reductions | Cer 18:0/18:0 content of gastrocnemius muscle (Chow + P053, individual mice): 6.716 and 7.477 and 5.961 and 6.052 and 7.077 and 6.063 and 5.232 and 5.747 and 5.304 and 6.401 | Cer 18:0/24:1 content of gastrocnemius muscle (Chow + P053, individual mice): 3.2091 and 2.598 and 3.667 and 1.8279 and 1.954 and 2.772 and 2.055 and 2.027 and 2.139 and 3.699 | Cer 18:1/16:0 content of gastrocnemius muscle (Chow + P053, individual mice): 0.3484 and 0.3091 and 0.3437 and 0.3068 and 0.4605 and 0.637 and 0.2188 and 0.4293 and 0.2277 and 0.4584 | Cer 18:1/18:0 content of gastrocnemius muscle (Chow + P053, individual mice): 20.203 and 22.2043 and 20.4893 and 19.2549 and 21.0178 and 15.4813 and 13.2288 and 14.0008 and 17.6182 and 17.1195 | Cer 18:1/20:0 content of gastrocnemius muscle (Chow + P053, individual mice): 0.4999 and 0.7758 and 0.6909 and 0.4845 and 0.671 and 0.9486 and 0.5576 and 0.508 and 0.7146 and 0.7451 | Cer 18:1/22:0 content of gastrocnemius muscle (Chow + P053, individual mice): 2.697 and 2.247 and 2.924 and 2.061 and 2.474 and 3.27 and 1.828 and 2.047 and 1.902 and 3.1173 | Cer 18:1/24:0 content of gastrocnemius muscle (Chow + P053, individual mice): 7.198 and 5.637 and 7.43 and 4.359 and 4.709 and 6.914 and 4.421 and 4.245 and 5.265 and 6.526 | Cer 18:1/24:1 content of gastrocnemius muscle (Chow + P053, individual mice): 11.8242 and 9.129 and 9.681 and 7.066 and 8.758 and 11.6384 and 7.885 and 7.128 and 7.643 and 10.6448 | Cer 18:2/18:0 content of gastrocnemius muscle (Chow + P053, individual mice): 0.4658 and 0.5512 and 0.4225 and 0.4514 and 0.5661 and 0.3835 and 0.2283 and 0.4455 and 0.4165 and 0.4597 | HexCer 18:1/16:0 content of gastrocnemius muscle (Chow + P053, individual mice): 0.2006 and 0.1094 and 0.05472 and 0.08462 and 0.1035 and 0.3016 and 0.02008 and 0.2899 and 0.1794 and 0.1526 | HexCer 18:1/18:0 content of gastrocnemius muscle (Chow + P053, individual mice): 2.77 and 1.138 and 0.685 and 0.5505 and 1.7658 and 1.01 and 1.02 and 3.397 and 2.789 and 0.3088 | HexCer 18:1/20:0 content of gastrocnemius muscle (Chow + P053, individual mice): 4.98 and 2.2562 and 1.185 and 0.63 and 2.136 and 1.46 and 2.186 and 5.934 and 4.2225 and 0.5191 | HexCer 18:1/22:0 content of gastrocnemius muscle (Chow + P053, individual mice): 28.6994 and 10.5255 and 7.341 and 3.05 and 12.9786 and 10.4072 and 8.903 and 30.0855 and 20.1916 and 3.513 | HexCer 18:1/22:1 content of gastrocnemius muscle (Chow + P053, individual mice): 2.443 and 0.8441 and 0.5964 and 0.2415 and 0.9642 and 0.3777 and 0.6547 and 2.558 and 1.9817 and 0.2068 | HexCer 18:1/24:0 content of gastrocnemius muscle (Chow + P053, individual mice): 131.55 and 47.7053 and 35.5956 and 20.727 and 57.5213 and 45.8559 and 36.9456 and 110.769 and 86.5459 and 16.7978 | HexCer 18:1/24:1 content of gastrocnemius muscle (Chow + P053, individual mice): 55.5818 and 22.7923 and 17.8764 and 8.062 and 22.9046 and 20.0825 and 17.0776 and 61.9168 and 40.6919 and 8.475 | SM 34:1 content of gastrocnemius muscle (Chow + P053, individual mice): 55.2092 and 65.2319 and 37.406 and 53.6606 and 49.036 and 73.0423 and 41.7651 and 81.6186 and 53.5156 and 54.7372 | SM 34:2 content of gastrocnemius muscle (Chow + P053, individual mice): 2.561 and 2.363 and 1.4133 and 1.332 and 1.809 and 2.655 and 1.68 and 2.4957 and 1.926 and 1.425 | SM 36:1 content of gastrocnemius muscle (Chow + P053, individual mice): 242.303 and 230.3 and 206.587 and 243.389 and 210.049 and 199.927 and 174.992 and 270.736 and 215.295 and 156.154 | SM 36:2 content of gastrocnemius muscle (Chow + P053, individual mice): 3.724 and 3.017 and 3.098 and 3.4 and 2.856 and 3.2428 and 2.648 and 4.315 and 4.019 and 3.053 | SM 40:1 content of gastrocnemius muscle (Chow + P053, individual mice): 97.5537 and 51.1596 and 53.7207 and 21.6057 and 37.8369 and 48.3173 and 39.3705 and 88.0525 and 69.3339 and 48.817 | SM 42:1 content of gastrocnemius muscle (Chow + P053, individual mice): 88.2897 and 52.3856 and 29.1894 and 16.6817 and 42.3452 and 43.7529 and 25.0289 and 89.171 and 54.8125 and 29.4411 | SM 42:2 content of gastrocnemius muscle (Chow + P053, individual mice): 288.299 and 175.495 and 168.331 and 87.7791 and 166.49 and 221.175 and 113.727 and 338.716 and 212.277 and 185.512 | Cer 18:0/18:0 content of gastrocnemius muscle (HFD + P053, individual mice): 6.696 (2×) and 6.991 and 7.614 and 9.306 and 10.4442 and 6.363 and 5.154 and 5.258 and 4.509 | Cer 18:0/24:1 content of gastrocnemius muscle (HFD + P053, individual mice): 4.519 and 1.914 and 1.715 and 1.673 and 2.381 and 12.1481 and 1.438 and 1.998 and 3.6 and 0.9202 | Cer 18:1/16:0 content of gastrocnemius muscle (HFD + P053, individual mice): 0.2953 and 0.2425 and 0.247 and 0.3667 and 0.6053 and 1.286 and 0.3154 and 0.1867 and 0.2439 and 0.2642 | Cer 18:1/18:0 content of gastrocnemius muscle (HFD + P053, individual mice): 21.9657 and 17.6562 and 21.0561 and 17.8475 and 19.1897 and 17.6974 and 13.2972 and 14.5082 and 22.6242 and 9.617 | Cer 18:1/20:0 content of gastrocnemius muscle (HFD + P053, individual mice): 1.3 and 0.9773 and 1.039 and 0.7088 and 1.3618 and 1.151 and 0.5199 and 0.8084 and 1.045 and 0.6734 | Cer 18:1/22:0 content of gastrocnemius muscle (HFD + P053, individual mice): 6.663 and 2.886 and 2.627 and 3.138 and 3.9433 and 5.15 and 2.442 and 3.877 and 4.12 and 2.291 | Cer 18:1/24:0 content of gastrocnemius muscle (HFD + P053, individual mice): 8.75 and 4.723 and 4.013 and 4.317 and 4.82 and 10.8999 and 3.077 and 4.318 and 7.266 and 2.309 | Cer 18:1/24:1 content of gastrocnemius muscle (HFD + P053, individual mice): 11.3105 and 7.675 and 5.851 and 7.272 and 9.129 and 11.5338 and 5.462 and 9.029 and 11.0555 and 5.753 | Cer 18:2/18:0 content of gastrocnemius muscle (HFD + P053, individual mice): 0.4484 and 0.4926 and 0.3634 and 0.4132 and 0.2765 and 0.3608 and 0.2849 and 0.2673 and 0.3042 and 0.2757 | HexCer 18:1/16:0 content of gastrocnemius muscle (HFD + P053, individual mice): 0.07083 and 0.2298 and 0.1257 and 0.1094 and 0.2809 and 0.09552 and 0.04859 and 0.09042 and 0.2927 and 0.128 | HexCer 18:1/18:0 content of gastrocnemius muscle (HFD + P053, individual mice): 0.6278 and 2.316 and 1.725 and 1.053 and 1.514 and 0.3784 and 1.339 and 1.2334 and 3.411 and 0.7622 | HexCer 18:1/20:0 content of gastrocnemius muscle (HFD + P053, individual mice): 1.025 and 3.657 and 4.193 and 2.559 and 2.728 and 0.775 and 2.303 and 1.6216 and 6.493 and 1.535 | HexCer 18:1/22:0 content of gastrocnemius muscle (HFD + P053, individual mice): 7.522 and 16.4106 and 20.0443 and 14.4231 and 12.9484 and 5.248 and 12.5609 and 13.236 and 35.9679 and 8.484 | HexCer 18:1/22:1 content of gastrocnemius muscle (HFD + P053, individual mice): 0.5466 and 1.486 and 1.3 and 1.291 and 1.104 and 0.193 and 0.8615 and 0.6275 and 2.662 and 0.7906 | HexCer 18:1/24:0 content of gastrocnemius muscle (HFD + P053, individual mice): 35.0734 and 65.2406 and 70.8422 and 52.1762 and 47.7217 and 19.7676 and 40.4927 and 43.8786 and 131.229 and 26.1187 | HexCer 18:1/24:1 content of gastrocnemius muscle (HFD + P053, individual mice): 11.8966 and 34.458 and 33.6892 and 26.2534 and 24.7881 and 7.796 and 20.5958 and 23.2933 and 61.9739 and 13.7499 | SM 34:1 content of gastrocnemius muscle (HFD + P053, individual mice): 32.5351 and 75.4148 and 64.2595 and 68.4699 and 74.2315 and 69.3058 and 56.8022 and 63.1231 and 40.9981 and 91.0819 | SM 34:2 content of gastrocnemius muscle (HFD + P053, individual mice): 1.53 and 2.835 and 1.998 and 2 and 2.418 and 2.144 and 2.133 and 2.338 and 2.209 and 2.34 | SM 36:1 content of gastrocnemius muscle (HFD + P053, individual mice): 125.344 and 223.512 and 246.64 and 236.8 and 200.399 and 135.056 and 273.936 and 199.397 and 141.624 and 291.891 | SM 36:2 content of gastrocnemius muscle (HFD + P053, individual mice): 1.77 and 3.547 and 2.905 and 2.734 and 5.421 and 3.741 and 3.767 and 2.494 and 1.973 and 4.895 | SM 40:1 content of gastrocnemius muscle (HFD + P053, individual mice): 74.9293 and 89.7182 and 104.131 and 44.9676 and 58.8143 and 74.268 and 90.7758 and 60.0553 and 174.22 and 68.0463 | SM 42:1 content of gastrocnemius muscle (HFD + P053, individual mice): 42.7745 and 43.392 and 45.2063 and 34.368 and 60.6982 and 34.7124 and 28.1104 and 34.3376 and 109.833 and 16.1089 | SM 42:2 content of gastrocnemius muscle (HFD + P053, individual mice): 124.791 and 220.201 and 175.989 and 144.772 and 171.488 and 135.796 and 111.009 and 132.926 and 406.752 and 102.287
